The values that follow come from ChEMBL document CHEMBL5233266, “β-Carboline as a Privileged Scaffold for Multitarget Strategies in Alzheimer's Disease Therapy” (J Med Chem, 2021).

Series [1] addresses 5-hydroxytryptamine receptor 2C (Rattus norvegicus, UniProt P08909). As to the kind of experiment: Displacement of [3H]-ketanserin from rat 5-HT2C expressed in mouse NIH/3T3 cells assessed as inhibition constant by Cheng-Prusoff equation analysis. The class given is cell-based. On the technique in general: In a radioligand displacement assay an active substance lowers the binding of a labelled ligand.

The target of series [2] is GABA-A receptor; anion channel. The series is described as follows: Displacement of [3H]flunitrazepam from GABAA (unknown origin ) receptor by radioligand binding assay. The class given is protein-complex assay, Homo sapiens.
Series [3] has as its target T1, Gamma-aminobutyric acid receptor subunit alpha-3 (Homo sapiens, UniProt P34903).
T1 sequence (P34903 whole entry): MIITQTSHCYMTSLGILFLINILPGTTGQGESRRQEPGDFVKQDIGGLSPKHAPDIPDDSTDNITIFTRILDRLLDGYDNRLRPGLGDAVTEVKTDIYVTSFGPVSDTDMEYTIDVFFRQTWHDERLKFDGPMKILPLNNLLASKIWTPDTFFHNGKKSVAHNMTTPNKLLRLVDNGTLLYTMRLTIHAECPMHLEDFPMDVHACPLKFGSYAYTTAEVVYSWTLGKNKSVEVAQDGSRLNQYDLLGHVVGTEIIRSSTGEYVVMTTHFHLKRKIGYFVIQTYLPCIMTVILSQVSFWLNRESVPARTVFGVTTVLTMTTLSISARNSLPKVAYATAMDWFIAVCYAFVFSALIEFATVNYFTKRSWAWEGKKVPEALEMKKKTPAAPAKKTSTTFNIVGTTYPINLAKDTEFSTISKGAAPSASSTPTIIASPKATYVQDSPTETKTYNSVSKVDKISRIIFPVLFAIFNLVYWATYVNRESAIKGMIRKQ
As to the kind of experiment: Inhibition of GABAA alpha3 receptor (unknown origin).

Series [4] has as its target T2, Gamma-aminobutyric acid receptor subunit alpha-2 (Homo sapiens, UniProt P47869).
T2 sequence (P47869 whole entry): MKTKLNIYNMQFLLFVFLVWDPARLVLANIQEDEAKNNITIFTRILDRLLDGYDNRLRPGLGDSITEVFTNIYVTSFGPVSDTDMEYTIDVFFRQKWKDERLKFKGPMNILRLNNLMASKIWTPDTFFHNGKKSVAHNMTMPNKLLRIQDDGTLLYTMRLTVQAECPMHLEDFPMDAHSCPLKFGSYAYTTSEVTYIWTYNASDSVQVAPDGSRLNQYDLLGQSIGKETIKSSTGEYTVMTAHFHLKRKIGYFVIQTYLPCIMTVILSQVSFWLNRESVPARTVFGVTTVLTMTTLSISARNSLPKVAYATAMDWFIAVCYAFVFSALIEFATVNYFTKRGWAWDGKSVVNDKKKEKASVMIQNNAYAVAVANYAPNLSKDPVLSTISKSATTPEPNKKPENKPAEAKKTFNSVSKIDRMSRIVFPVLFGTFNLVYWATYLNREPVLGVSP
As to the kind of experiment: Binding affinity to human recombinant GABAA alpha2 receptor assessed as inhibition constant incubated for 1 hrs by liquid scintillation counting analysis.

Series [5] deals with T1, Gamma-aminobutyric acid receptor subunit alpha-3. The series is described as follows: Binding affinity to human recombinant GABAA alpha3 receptor assessed as inhibition constant incubated for 1 hrs by liquid scintillation counting analysis.
The target of series [6] is T3, Gamma-aminobutyric acid receptor subunit alpha-6 (Homo sapiens, UniProt Q16445). As to the kind of experiment: Binding affinity to GABAA alpha6 receptor (unknown origin) assessed as inhibition constant.
T3 sequence (Q16445 whole entry): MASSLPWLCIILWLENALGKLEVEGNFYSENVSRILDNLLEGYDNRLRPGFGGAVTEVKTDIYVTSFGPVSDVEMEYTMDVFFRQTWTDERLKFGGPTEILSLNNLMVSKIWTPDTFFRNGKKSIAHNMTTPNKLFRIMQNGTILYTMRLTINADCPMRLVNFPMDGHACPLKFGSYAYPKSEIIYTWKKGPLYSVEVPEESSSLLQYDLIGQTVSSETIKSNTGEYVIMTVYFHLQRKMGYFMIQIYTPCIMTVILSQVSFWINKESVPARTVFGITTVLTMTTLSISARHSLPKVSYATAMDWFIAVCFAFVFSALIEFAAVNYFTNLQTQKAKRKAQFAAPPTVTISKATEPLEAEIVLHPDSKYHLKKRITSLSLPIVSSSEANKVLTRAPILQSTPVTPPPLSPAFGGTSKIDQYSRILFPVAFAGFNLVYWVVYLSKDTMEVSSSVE
In series [7] the target is T2, Gamma-aminobutyric acid receptor subunit alpha-2. As to the kind of experiment: Inhibition of GABAA alpha2 receptor (unknown origin).
In series [8] the target is T4, Gamma-aminobutyric acid receptor subunit alpha-5 (Homo sapiens, UniProt P31644).
T4 sequence (P31644 whole entry): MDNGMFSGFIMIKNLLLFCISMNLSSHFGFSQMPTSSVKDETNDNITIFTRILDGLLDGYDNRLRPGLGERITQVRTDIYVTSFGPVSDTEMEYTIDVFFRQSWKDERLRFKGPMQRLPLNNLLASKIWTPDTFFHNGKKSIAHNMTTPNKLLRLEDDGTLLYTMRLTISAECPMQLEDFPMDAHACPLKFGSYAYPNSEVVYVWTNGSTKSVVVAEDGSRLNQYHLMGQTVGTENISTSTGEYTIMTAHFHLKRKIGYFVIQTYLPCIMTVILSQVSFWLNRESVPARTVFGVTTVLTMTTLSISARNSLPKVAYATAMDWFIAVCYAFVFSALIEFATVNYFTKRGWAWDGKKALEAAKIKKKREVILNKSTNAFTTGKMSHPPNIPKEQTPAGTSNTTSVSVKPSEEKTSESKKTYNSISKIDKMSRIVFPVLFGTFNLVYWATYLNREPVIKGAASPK
As to the kind of experiment: Binding affinity to human recombinant GABAA alpha5 receptor assessed as inhibition constant incubated for 1 hrs by liquid scintillation counting analysis.

Series [9] has as its target T3, Gamma-aminobutyric acid receptor subunit alpha-6. The series is described as follows: Binding affinity to human recombinant GABAA alpha6 receptor assessed as inhibition constant incubated for 1 hrs by liquid scintillation counting analysis.
For series [10], the target named is T5, Gamma-aminobutyric acid receptor subunit alpha-1 (Homo sapiens, UniProt P14867).
T5 sequence (P14867 whole entry): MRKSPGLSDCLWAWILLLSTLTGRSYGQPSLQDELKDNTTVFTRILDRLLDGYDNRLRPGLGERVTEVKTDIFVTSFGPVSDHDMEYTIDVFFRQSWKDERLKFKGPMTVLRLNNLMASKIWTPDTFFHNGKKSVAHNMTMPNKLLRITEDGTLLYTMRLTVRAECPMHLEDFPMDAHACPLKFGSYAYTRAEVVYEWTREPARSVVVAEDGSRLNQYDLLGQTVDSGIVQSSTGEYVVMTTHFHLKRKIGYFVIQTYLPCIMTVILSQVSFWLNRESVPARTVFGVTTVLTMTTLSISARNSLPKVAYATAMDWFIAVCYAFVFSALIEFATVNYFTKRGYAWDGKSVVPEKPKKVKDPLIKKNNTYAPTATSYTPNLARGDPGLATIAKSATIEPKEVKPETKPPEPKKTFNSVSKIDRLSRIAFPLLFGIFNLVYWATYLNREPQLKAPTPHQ
The series is described as follows: Inhibition of GABAA alpha1 receptor (unknown origin).

The target in series [11] is T4, Gamma-aminobutyric acid receptor subunit alpha-5. As to the kind of experiment: Inhibition of GABAA alpha5 receptor (unknown origin).
The target in series [12] is T5, Gamma-aminobutyric acid receptor subunit alpha-1. The series is described as follows: Binding affinity to human recombinant GABAA alpha1 receptor assessed as inhibition constant incubated for 1 hrs by liquid scintillation counting analysis.
The target in series [13] is cGMP-specific 3',5'-cyclic phosphodiesterase (Homo sapiens, UniProt O76074). As to the kind of experiment: Inhibition of PDE5 (unknown origin).
The next series deals with Histone deacetylase 2 (Homo sapiens, UniProt Q92769). The series is described as follows: Inhibition of HDAC2 (unknown origin).
Chain of Histone deacetylase 2 (Q92769 whole entry): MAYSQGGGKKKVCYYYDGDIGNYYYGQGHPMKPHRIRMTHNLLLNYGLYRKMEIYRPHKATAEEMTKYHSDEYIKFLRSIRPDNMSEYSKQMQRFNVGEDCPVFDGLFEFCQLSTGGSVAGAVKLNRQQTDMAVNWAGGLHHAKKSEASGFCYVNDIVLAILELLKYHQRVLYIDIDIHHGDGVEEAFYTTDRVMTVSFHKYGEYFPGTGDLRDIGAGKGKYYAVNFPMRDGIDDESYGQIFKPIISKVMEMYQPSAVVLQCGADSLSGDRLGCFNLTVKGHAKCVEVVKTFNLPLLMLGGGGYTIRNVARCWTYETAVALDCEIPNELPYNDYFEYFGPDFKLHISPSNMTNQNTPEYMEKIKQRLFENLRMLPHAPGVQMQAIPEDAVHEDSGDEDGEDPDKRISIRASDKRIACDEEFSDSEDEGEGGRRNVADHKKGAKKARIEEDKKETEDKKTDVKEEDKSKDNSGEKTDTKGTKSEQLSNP
Series [14] addresses T6, Protein deacetylase HDAC6 (Homo sapiens, UniProt Q9UBN7).
T6 sequence (Q9UBN7 whole entry): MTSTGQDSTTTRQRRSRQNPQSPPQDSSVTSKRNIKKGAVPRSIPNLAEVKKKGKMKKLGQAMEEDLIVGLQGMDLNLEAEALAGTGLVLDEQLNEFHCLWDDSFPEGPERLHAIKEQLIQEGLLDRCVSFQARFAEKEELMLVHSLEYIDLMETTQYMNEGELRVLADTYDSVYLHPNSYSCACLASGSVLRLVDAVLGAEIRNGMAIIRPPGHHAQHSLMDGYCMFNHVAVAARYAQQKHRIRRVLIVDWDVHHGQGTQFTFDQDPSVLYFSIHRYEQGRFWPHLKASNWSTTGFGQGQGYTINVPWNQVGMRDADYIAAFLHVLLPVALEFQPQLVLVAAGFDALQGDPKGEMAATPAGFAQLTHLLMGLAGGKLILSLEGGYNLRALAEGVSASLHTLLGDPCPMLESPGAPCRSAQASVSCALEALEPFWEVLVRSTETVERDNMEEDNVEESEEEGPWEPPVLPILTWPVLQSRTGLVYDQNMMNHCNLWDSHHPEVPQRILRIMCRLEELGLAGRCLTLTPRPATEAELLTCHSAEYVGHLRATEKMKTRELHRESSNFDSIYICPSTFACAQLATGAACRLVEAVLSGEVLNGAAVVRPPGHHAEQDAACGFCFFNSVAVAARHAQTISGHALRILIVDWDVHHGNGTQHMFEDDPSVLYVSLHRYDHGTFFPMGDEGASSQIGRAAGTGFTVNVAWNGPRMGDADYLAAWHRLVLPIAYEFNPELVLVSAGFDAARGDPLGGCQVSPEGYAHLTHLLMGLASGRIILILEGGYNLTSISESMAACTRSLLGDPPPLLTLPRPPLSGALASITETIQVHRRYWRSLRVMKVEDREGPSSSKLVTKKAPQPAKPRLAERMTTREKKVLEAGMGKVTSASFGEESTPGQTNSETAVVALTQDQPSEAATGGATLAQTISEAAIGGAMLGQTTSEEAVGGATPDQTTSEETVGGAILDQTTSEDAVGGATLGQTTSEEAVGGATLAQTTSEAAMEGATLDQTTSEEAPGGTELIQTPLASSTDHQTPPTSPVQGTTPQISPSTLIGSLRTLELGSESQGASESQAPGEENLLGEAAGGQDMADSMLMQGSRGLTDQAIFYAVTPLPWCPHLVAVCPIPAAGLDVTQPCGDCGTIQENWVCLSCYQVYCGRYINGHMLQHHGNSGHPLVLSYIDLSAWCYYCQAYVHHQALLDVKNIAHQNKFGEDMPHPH
As to the kind of experiment: Inhibition of HDAC6 (unknown origin).

A further series deals with Histone deacetylase 1 (Homo sapiens, UniProt Q13547). The series is described as follows: Inhibition of HDAC1 (unknown origin).
Chain of Histone deacetylase 1 (Q13547 whole entry): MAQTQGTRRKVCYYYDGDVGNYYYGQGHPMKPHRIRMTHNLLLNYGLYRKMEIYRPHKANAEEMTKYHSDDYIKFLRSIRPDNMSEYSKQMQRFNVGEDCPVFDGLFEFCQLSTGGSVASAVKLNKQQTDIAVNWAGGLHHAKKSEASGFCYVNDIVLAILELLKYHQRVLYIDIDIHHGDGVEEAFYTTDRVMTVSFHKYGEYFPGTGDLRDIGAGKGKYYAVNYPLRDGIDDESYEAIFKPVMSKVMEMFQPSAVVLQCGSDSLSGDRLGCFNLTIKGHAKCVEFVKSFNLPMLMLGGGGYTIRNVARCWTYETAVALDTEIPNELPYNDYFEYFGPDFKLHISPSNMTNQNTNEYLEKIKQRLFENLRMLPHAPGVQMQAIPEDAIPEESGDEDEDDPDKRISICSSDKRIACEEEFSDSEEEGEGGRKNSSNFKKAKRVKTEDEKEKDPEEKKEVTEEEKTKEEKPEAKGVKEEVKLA
In series [15] the target is 5-hydroxytryptamine receptor 2A (Homo sapiens, UniProt P28223). The series is described as follows: Displacement of [3H]-LSD from human 5-HT2A expressed in human HEK cells assessed as inhibition constant by FLIPR assay. The class given is cell-based.
Chain of 5-hydroxytryptamine receptor 2A (P28223 whole entry): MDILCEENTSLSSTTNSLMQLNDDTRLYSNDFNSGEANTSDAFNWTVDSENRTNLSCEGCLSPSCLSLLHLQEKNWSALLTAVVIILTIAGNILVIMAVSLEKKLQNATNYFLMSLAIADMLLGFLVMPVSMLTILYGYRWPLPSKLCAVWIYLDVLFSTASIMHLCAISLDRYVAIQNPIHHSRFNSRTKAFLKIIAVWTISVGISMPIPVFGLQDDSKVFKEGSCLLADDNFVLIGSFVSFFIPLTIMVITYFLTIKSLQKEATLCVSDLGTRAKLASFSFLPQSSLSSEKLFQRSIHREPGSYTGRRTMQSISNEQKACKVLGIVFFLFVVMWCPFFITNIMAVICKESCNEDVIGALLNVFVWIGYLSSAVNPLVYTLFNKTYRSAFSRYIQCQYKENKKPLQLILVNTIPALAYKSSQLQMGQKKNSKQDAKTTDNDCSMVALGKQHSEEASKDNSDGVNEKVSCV
Series [16] deals with T7, 5-hydroxytryptamine receptor 3A (Homo sapiens, UniProt P46098).
T7 sequence (P46098 whole entry): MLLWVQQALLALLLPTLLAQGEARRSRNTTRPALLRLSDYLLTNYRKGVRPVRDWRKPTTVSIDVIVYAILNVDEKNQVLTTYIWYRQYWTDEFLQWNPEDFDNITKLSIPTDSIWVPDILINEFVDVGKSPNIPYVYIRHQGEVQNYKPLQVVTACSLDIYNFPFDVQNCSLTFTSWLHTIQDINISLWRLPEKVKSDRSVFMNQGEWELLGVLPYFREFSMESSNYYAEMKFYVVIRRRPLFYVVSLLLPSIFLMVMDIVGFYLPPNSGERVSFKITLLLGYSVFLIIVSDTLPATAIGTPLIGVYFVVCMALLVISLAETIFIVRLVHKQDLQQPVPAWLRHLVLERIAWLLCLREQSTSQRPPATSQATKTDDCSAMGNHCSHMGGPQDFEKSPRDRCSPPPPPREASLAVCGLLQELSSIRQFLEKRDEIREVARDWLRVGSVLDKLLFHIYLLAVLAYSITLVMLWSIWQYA
As to the kind of experiment: Binding affinity to 5-HT3R (unknown origin) assessed as inhibition constant.

The target of series [17] is 5-hydroxytryptamine receptor 1A (Homo sapiens, UniProt P08908). As to the kind of experiment: Displacement of […] from human 5-HT1A expressed in human HEK cells assessed as inhibition constant by FLIPR assay. The series is classed as cell-based.
Chain of 5-hydroxytryptamine receptor 1A (P08908 whole entry): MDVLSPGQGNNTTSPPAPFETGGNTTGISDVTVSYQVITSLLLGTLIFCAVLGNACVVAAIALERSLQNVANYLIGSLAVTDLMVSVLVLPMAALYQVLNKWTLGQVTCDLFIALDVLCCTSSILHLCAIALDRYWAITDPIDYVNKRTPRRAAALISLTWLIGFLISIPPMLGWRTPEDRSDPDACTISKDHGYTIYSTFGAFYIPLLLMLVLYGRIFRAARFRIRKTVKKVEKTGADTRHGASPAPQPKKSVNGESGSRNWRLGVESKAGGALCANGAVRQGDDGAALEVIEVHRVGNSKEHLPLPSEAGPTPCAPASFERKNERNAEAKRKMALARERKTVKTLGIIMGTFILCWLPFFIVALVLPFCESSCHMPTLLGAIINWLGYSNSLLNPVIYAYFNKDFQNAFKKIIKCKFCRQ
The target of the next series is Acetylcholinesterase (Homo sapiens, UniProt P22303). As to the kind of experiment: Inhibition of AChE (unknown origin).
Chain of Acetylcholinesterase (P22303 whole entry): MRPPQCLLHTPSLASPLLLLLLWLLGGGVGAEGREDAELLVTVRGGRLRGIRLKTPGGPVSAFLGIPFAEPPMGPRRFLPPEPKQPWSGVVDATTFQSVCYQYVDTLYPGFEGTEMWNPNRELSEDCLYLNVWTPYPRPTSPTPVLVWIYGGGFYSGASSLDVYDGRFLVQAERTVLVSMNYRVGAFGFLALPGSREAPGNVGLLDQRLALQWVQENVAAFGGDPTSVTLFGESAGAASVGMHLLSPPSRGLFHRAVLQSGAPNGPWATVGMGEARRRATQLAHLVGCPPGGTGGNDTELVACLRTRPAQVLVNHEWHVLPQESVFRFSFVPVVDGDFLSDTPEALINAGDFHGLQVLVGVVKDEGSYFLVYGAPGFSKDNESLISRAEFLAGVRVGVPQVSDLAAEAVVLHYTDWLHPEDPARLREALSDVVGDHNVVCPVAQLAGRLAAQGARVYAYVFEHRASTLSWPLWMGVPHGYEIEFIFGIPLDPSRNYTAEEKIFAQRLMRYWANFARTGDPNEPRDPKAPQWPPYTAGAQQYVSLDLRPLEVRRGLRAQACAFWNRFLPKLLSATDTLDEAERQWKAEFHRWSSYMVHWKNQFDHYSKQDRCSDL
Series [18] is described as follows: Aqueous solubility of compound. The class given is physicochemical. Particulars: water.

SMILES strings stand for the structures. ≈ marks a conversion by molar mass, not a printed value.

Chain of 5-hydroxytryptamine receptor 2C (P08909 whole entry): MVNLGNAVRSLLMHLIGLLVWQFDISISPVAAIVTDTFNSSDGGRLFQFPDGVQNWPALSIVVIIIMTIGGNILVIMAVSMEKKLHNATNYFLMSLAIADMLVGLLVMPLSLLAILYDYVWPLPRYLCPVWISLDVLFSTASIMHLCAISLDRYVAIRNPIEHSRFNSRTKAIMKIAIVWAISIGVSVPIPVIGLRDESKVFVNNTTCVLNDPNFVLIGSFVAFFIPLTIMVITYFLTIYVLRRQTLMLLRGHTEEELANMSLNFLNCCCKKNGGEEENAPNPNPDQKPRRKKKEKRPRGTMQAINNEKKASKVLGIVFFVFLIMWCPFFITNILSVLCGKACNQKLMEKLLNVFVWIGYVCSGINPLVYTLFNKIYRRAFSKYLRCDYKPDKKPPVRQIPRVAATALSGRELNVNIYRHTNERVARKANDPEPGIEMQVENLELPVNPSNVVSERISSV

Regarding `COc1ccc2c3c([nH]c2c1)C(C)NCC3` (stereo unspecified), the Ki (in general, the equilibrium dissociation constant of an inhibitor or competing ligand from its target) in series [1] is more than 10 µM. For the same compound, the IC50 (in general, the concentration needed to halve the response being measured) in series [2] was more than 100 µM.
Regarding `c1ccc2c(c1)[nH]c1cnc3c4ccncc4[nH]c3c12`, the IC50 was 0.031 µM in [3], 0.024 µM in [7], 0.003 µM in series [10] and 0.24 µM in [11]. Also, the Ki in series [4] is 0.024 µM; in [5], 0.031 µM; in series [6] it was more than 10 µM; in series [8] it was 0.24 µM; in [9], more than 10 µM; in series [12] it was 0.003 µM.
In the case of `O=C(CCCN1CCC(N2CC(=O)N3C(Cc4c([nH]c5ccccc45)C3c3ccc4c(c3)OCO4)C2=O)CC1)NO` (stereo unspecified), the IC50 in series [13] is 0.14 µM; on Histone deacetylase 2 it was more than 2.5 µM; in series [14], more than 2.5 µM; on Histone deacetylase 1 it was more than 2.5 µM.
As to `CC1=NCCc2c1[nH]c1ccccc21`, the Ki in series [15] is 0.99 µM; in series [16], more than 10 µM; in series [17] it was 1.7 µM.
For the compound `COc1ccc([C@@H]2c3[nH]c4ccccc4c3C[C@H]3C(=O)N(CCC4CCN(Cc5ccccc5)CC4)CC(=O)N23)cc1`, the IC50 against Acetylcholinesterase turned out to be 0.015 µM; in series [13], 3.2 µM. The solubility (commonly the concentration that dissolves in the medium under given conditions) in [18] worked out at 0.42 mg/mL (≈ 746 µM).
Take `O=C(/C=C/c1ccc(N2CC(=O)N3C(Cc4c([nH]c5ccccc45)C3c3ccc4c(c3)OCO4)C2=O)cc1)NO` (stereo unspecified): the IC50 in series [13] was 0.12 µM; against Histone deacetylase 2, more than 2.5 µM; in series [14] it was more than 2.5 µM; at Histone deacetylase 1, more than 2.5 µM.
